Source: PMC7501440 (Heliyon, 2020)
Like-named read-outs stand apart in the source and are kept apart here.

How the values were obtained:
AChE = tested on: AChE; set-up: method as in PMID 17962731; conditions: AChE inhibition; cited from earlier work
[1] = target: T1, Human acetycholinesterase (hAChE) (Homo sapiens, UniProt P22303); assay: hAChE inhibition assay, modified Ellman's colorimetric protocol; type: biochemical
T1 construct: purchased Sigma
Protocol: (§1) Human acetycholinesterase (hAChE) activities were determined with a slight modification of Ellman's colorimetric protocol. […] The bioactivity was determined by evaluating the hydrolysis rate of acetylthiocholine iodide (ATCI, 0.1 mM) with the final volume of 300 μL with a phosphate buffer of 180 μL of 100 mM, pH 7.3 and 2 mM DTNB 0.09U of hAChE (Sigma) were applied to this solution and pre-incubated for 45 min at room temperature. The 96-well microplate was read in a microplate reader (Ensight Multimode Reader, Perkin Elmer) at 412 nm after adding DTNB and ATCI. The enzyme kinetic parameters were determined by incubating the substrate at multiple concentrations with or without test inhibitor by double-reciprocal (Lineweaver- Burk) plots in 0.09U of hAChE. From the Lineweaver-Burk plots, the inhibition mechanisms were measured graphically. The kinetics were performed using a series of concentrations of 4a to 4e and substrate AChI at 412 nm. The quantitative datas were expressed as mean ± SD results from three independent experiments. GraphPad Prism version 6.01 (GraphPad Software Inc., San Diego, USA) was used for regression analysis to calculate the IC50 values and the enzyme kinetic parameters (Km, Vmax). The IC50 and enzyme kinetics values (Vmax and Km) were calculated by this formula IC50 Y = min + max-min/1+(X/EC50)^−Hillslops. . Vmax and Km Y = Vmax∗X/(Km + X).
(§2) An evaluation of the therapeutic potential in the treatment of AD of target compounds 4a, 4b, 4c, 4d and 4e were measured for AChE inhibitory activity using the Ellman method. To find the inhibitory effects, the test compounds were incubated with multiple concentrations of human AChE. […] These compounds were designed from the trans-tephrostachin. It was isolated and structuraly characterized from Tephrosia purpurea in our previous studies. To investigate the mechanism of trans-tephrostachin derivatives against AChE, kinetic studies were conducted for all compounds. Such plots presented a secondary plot of Km/Vmax versus test compound concentrations for the Km and Vmax. […] Compound 4a is a trans-tephrostachin which was isolated and structurally characterized previously.

[2] = target: T1, Human acetycholinesterase (hAChE); assay: hAChE enzyme kinetics, Lineweaver-Burk and secondary plots; type: biochemical; conditions: for Vmax: hAChE in presence of inhibitor, without inhibitor 0.34 ± 0.01; for Inhibition type: hAChE, Lineweaver-Burk plots
Protocol: as §1, §2

[3] = human AChE, Ellman method, average of three sets of assays, read-out: IC50 Concentration
[4] = human AChE, secondary plot of Km/Vmax versus compound concentration, read-out: Ki

T1 sequence (P22303 32-614): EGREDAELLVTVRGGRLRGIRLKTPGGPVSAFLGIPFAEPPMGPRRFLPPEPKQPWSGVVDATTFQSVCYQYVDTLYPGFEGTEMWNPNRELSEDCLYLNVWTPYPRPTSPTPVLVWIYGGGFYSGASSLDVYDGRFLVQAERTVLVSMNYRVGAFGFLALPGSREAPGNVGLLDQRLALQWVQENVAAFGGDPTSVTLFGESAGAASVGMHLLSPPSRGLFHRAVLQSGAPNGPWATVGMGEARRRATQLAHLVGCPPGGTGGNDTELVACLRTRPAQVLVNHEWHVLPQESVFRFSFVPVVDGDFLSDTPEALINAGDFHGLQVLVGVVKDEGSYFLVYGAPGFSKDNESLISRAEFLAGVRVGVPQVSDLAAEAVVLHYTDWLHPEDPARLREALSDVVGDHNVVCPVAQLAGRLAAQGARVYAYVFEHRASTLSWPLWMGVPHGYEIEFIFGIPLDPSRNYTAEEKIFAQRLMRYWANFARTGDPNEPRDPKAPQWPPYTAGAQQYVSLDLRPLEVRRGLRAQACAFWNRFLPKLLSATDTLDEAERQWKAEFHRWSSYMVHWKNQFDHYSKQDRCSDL

SMILES: O=C(/C=C/c1ccc(O)cc1)OC[C@H]1O[C@@H](Oc2c(-c3ccc(O)cc3)oc3cc(O)cc(O)c3c2=O)[C@H](O)[C@@H](O)[C@@H]1O [tiliroside]
- IC50 (AChE): 23.5 µM

SMILES: CC(=O)Oc1cc(OC(C)=O)c2c(=O)cc(-c3ccccc3)oc2c1/C=C/C(C)(C)O [Compound 4e, (E)-8-(3-hydroxy-3-methylbut-1-en-1-yl)-4-oxo-2-phenyl-4H-chromene-5,7-diyl diacetate]
- IC50 [1, 3]: 28.1 ± 2.1 µM
- Vmax [2]: 0.36 ± 0.2
- Inhibition type [2]: Competitive inhibition
- Ki [2, 4]: 198 ± 10.1 µM

SMILES: CC(C)(O)/C=C/c1c(OC(=O)c2ccc([N+](=O)[O-])cc2)cc(OC(=O)c2ccc([N+](=O)[O-])cc2)c2c(=O)cc(-c3ccccc3)oc12 [Compound 4d, (E)-8-(3-hydroxy-3-methylbut-1-en-1-yl)-4-oxo-2-phenyl-4H-chromene-5,7-diyl bis(4-nitrobenzoate)]
- IC50 [1]: 10.3 µM
- Ki [2]: 8.25 ± 1.7 µM
- Vmax [2]: 0.15 ± 0.01
- Inhibition type [2]: mixed type inhibition

SMILES: COc1cc(OC)c2c(=O)cc(-c3ccccc3)oc2c1/C=C/C(C)(C)O [Compound 4a, (E)-8-(3-hydroxy-3-methylbut-1-en-1-yl)-5,7-dimethoxy-2-phenyl-4H-chromen-4-one]
- IC50 [1, 3]: 35 ± 1.2 µM
- Vmax [2]: 0.13 ± 0.08
- Inhibition type [2]: mixed type inhibition
- Ki [2, 4]: 29.3 ± 7.2 µM

SMILES: C[n+]1c2n(c(=O)c3ccccc31)CCc1c-2[nH]c2ccccc12 [dehydroevodiamine]
- IC50 (AChE): 37.8 µM

SMILES: CC(C)(O)/C=C/c1c(OC(=O)c2ccccc2)cc(OC(=O)c2ccccc2)c2c(=O)cc(-c3ccccc3)oc12 [Compound 4c, (E)-8-(3-hydroxy-3-methylbut-1-en-1-yl)-4-oxo-2-phenyl-4H-chromene-5,7-diyl dibenzoate]
- IC50 [1, 3]: 10.6 ± 2.8 µM
- Vmax [2]: 0.14 ± 0.1
- Inhibition type [2]: mixed type inhibition
- Ki [2, 4]: 46.4 ± 9.5 µM

SMILES: C[C@@H]1O[C@@H](Oc2c(-c3ccc(O)c(O)c3)oc3cc(O)cc(O)c3c2=O)[C@H](O)[C@H](O)[C@H]1O [quercitrin]
- IC50 (AChE): 66.9 µM

SMILES: CCOc1cc(OCC)c2c(=O)cc(-c3ccccc3)oc2c1/C=C/C(C)(C)O [Compound 4b, (E)-5,7-diethoxy-8-(3-hydroxy-3-methylbut-1-en-1-yl)-2-phenyl-4H-chromen-4-one]
- IC50 [1, 3]: 35.6 ± 2.8 µM
- Vmax [2]: 0.34 ± 0.01
- Inhibition type [2]: Competitive inhibition
- Ki [2, 4]: 206 ± 12 µM
